# In US20110224240A1 (Myrexis, Inc., priority 2010, published 2011):
# Key:
# [1] = tested on: NCI/ADR-Res (MDR-1); assay: Multidrug resistant cell assay, cytotoxicity; conditions: 72 h, read-out: Various MDR Cell Line Cytotoxicity IC50
# [2] = tested on: MIAPaCa-2; assay: 72 hour cytotoxicity, ATP-Lite cell viability; assay type: cell-based; conditions: Homo sapiens, MIA PaCa-2, MIAPaCa-2, Pancreatic, read-out: 72 Hour Cytotoxicity (IC50, nM ± SD)
# Experimental: (§1) A P388 murine leukemia cell line was obtained from NCI, Frederick, Md. P388 cells were cultured in RPMI-1640 supplemented with 10% fetal bovine serum, 2 mM Glutamax, 1 mM sodium pyruvate, 0.1 mM non-essential amino acids and 10 mM HEPES. Cells were grown at 37° C. in a humidified 5% CO2 atmosphere. Exponentially growing P388 cells were plated at 5,000 cells/well in a 96-well flat-bottomed microtiter plate (Corning, Costar #3595, Lowell, Mass.). Twenty-four hours later, test compound was added to cells at final concentrations of 100 nM, 33.3 nM, 11.1 nM, 3.7 nM, 1.23 nM, 0.4 nM and 0.13 nM. Cellular viability was determined 72 hours later by measuring intracellular ATP with ATP-Lite assay system. The effect of compounds on cell viability was calculated by comparing the ATP levels of cells exposed to test compound with those of cells exposed to DMSO. A semi-log plot of relative ATP levels versus compound concentration was used to calculate the compound concentration required to inhibit growth by 50% (IC50). Data was analyzed by Prism software (GraphPad; San Diego, Calif.) by fitting it to a sigmoidal dose response curve.
# (§2) A similar procedure was followed with six other cell lines and the results are shown in Table 1: HT-29, HCT-116, A549, OVCAR-3, MIAPaCa-2, and B16F1.
# [3] = tested on: HCT-116; assay: 72 hour cytotoxicity, ATP-Lite cell viability; assay type: cell-based; conditions: Homo sapiens, HCT-116, Colorectal Carcinoma, read-out: 72 Hour Cytotoxicity (IC50, nM ± SD)
# Experimental: as §1, §2
# [4] = tested on: A549; assay: 72 hour cytotoxicity, ATP-Lite cell viability; assay type: cell-based; conditions: Homo sapiens, A549, Lung, read-out: 72 Hour Cytotoxicity (IC50, nM ± SD)
# Experimental: as §1, §2
# [5] = tested on: B16F1; assay: 72 hour cytotoxicity, ATP-Lite cell viability; assay type: cell-based; conditions: Mus musculus, B16-F1, B16F1, Melanoma, read-out: 72 Hour Cytotoxicity (IC50, nM ± SD)
# Experimental: as §1, §2
# [6] = tested on: OVCAR-3; assay: 72 hour cytotoxicity, ATP-Lite cell viability; assay type: cell-based; conditions: Homo sapiens, OVCAR-3, Ovarian, read-out: 72 Hour Cytotoxicity (IC50, nM ± SD)
# Experimental: as §1, §2
# [7] = tested on: HT-29; assay: 72 hour cytotoxicity, ATP-Lite cell viability; assay type: cell-based; conditions: Homo sapiens, HT-29, Colorectal, read-out: 72 Hour Cytotoxicity (IC50, nM ± SD)
# Experimental: as §1, §2
# [8] = tested on: MCF-7; assay: Multidrug resistant cell assay, cytotoxicity; assay type: cell-based; conditions: Homo sapiens, MCF7, 72 h, read-out: Various MDR Cell Line Cytotoxicity IC50
# [9] = tested on: multiple cancer cell lines; assay: Pro-apoptotic activity in multiple cancer cell lines; assay type: cell-based
# [10] = tested on: MCF-7/MX (BCRP-1); assay: Multidrug resistant cell assay, cytotoxicity; assay type: cell-based; conditions: MCF7/MX, 72 h, read-out: Various MDR Cell Line Cytotoxicity IC50
# [11] = tested on: B16-F0 tumor; assay: B16-F0 melanoma allograft study in nude mice; assay type: in vivo; conditions: melanoma (B16-F0) allografts in nude mice, oral dosing (50 mg/kg qd×5 or 200 mg/kg qwk×2 p.o.), relative to vehicle
# Experimental: Female Crl:Nu/Nu-nuBR mice (Charles River Labs, Wilmington, Mass.) were implanted subcutaneously with 10^6 B16-F0 cells in the right flank. Animals were housed by groups in Positive Individual Ventilation cages in flat-bottom cages with no more than ten mice per cage. Environmental controls were set to maintain a temperature between 65 and 75° F. with a relative humidity of 30-70% in a 12:12 hour light:dark cycle. Animals were fed and watered ad libitum. Tumors were allowed to grow to approximately 100 mm^3 and then mice were placed into test groups (N=10). Animals were treated with vehicle, 50 mg/kg Compound 1 qd×5 p.o. or 200 mg/kg Compound 1 qwk×2 p.o. The mice were observed daily for mortality and signs of toxicity. Tumor growth was monitored externally using a caliper and volumes calculated using the formula [p/6 (width^2×length)], in which width represents the smaller tumor diameter. Studies were completed when the first animal achieved a tumor volume >1500 mm^3. Statistical analysis of variance with unadjusted pair wise comparison was performed using SAS software (Cary, N.C.).
# [12] = tested on: A549 cells; assay: Microtubule formation in A549 cells (FIG. 1); assay type: cell-based; conditions: 100 nM, 1 μM, 10 μM
# Experimental: FIG. 1 depicts the extent of microtubule formation in A549 cells treated with (2-aminomethylquinazolin-4-yl)-(4-methoxyphenyl)methylamine (“Compound 1”). The cells in panel “a” were treated with 100 nM concentration of Compound 1. The cells in panel “b” were treated with 1 μM concentration of Compound 1. The cells in panel “c” were treated with 10 μM concentration of Compound 1.
# FIG. 1 depicts the extent of microtubule formation in A549 cells treated with Compound 1. The cells in panel “a” were treated with 100 nM concentration of Compound 1. The cells in panel “b” were treated with 1 μM concentration of Compound 1. The cells in panel “c” were treated with 10 μM concentration of Compound 1.
# [13] = tested on: P388 murine leukemia cell line; assay: 72 hour cytotoxicity, ATP-Lite cell viability; assay type: cell-based; conditions: Mus musculus, P388, Lymphoma, read-out: 72 Hour Cytotoxicity (IC50, nM ± SD)
# Experimental: as §1
# [14] = tested on: P388/ADR (MDR-1); assay: Multidrug resistant cell assay, cytotoxicity; assay type: cell-based; conditions: 72 hours, read-out: Various MDR Cell Line Cytotoxicity IC50
# Experimental: P388/ADR cell lines were obtained from American Type Culture Collection (Manassas, Va.) and maintained in RPMI-1640 media supplemented with 10% FCS, 10 units/ml penicillin and streptomycin, 2 mM Glutamax and 1 mM sodium pyruvate (Invitrogen Corporation, Carlsbad, Calif.). […] Cells were allowed to adhere to the plate overnight and then incubated with the compound at final concentrations ranging from 0.13 nM to 10 uM for 72 hours. Cell viability was then assessed using the ATP-lite reagent (Perkin Elmer, Foster City, Calif.). Plates were read on a Wallac Topcount luminescence reader (Perkin Elmer, Foster City, Calif.) and the results graphed in Prism software (Graphpad Software, Inc., San Diego, Calif.). Non-linear regression with variable slope analysis was performed to obtain IC50 concentration values.
# [15] = tested on: P388; assay: Multidrug resistant cell assay, cytotoxicity; assay type: cell-based, murine; conditions: Mus musculus, P388, 72 h, read-out: Various MDR Cell Line Cytotoxicity IC50
compound,measurement,setting,value
COc1ccc(N(C)c2nc(CN)nc3ccccc23)cc1 [Compound 1],IC50,[1],13 nM
same,IC50,[2],56 nM
same,IC50,[3],7.6 ± 1.9 nM
same,IC50,[4],54 nM
same,IC50,[5],37 nM
same,IC50,[6],29 ± 20.1 nM
same,IC50,[7],29 ± 2 nM
same,IC50,[8],27 nM
same,"pro-apoptotic activity, potency","[9]; multiple cancer types including pancreatic, breast, colorectal, non-small cell lung, melanoma, ovarian cancers and leukemia",potency at low nanomolar concentrations
same,induction of apoptosis versus ABC transporter expression,"[9]; regardless of expression levels of MDR-1 (Pgp-1), MRP-1, BCRP-1",equipotent for induction of apoptosis
same,IC50,[10],9 nM
same,inhibition of tumor growth,[11],Statistically significant (p<0.00005) inhibition of tumor growth
same,microtubule formation,[12],inhibits microtubule formation
same,IC50,[13],6.1 ± 2.2 nM
same,IC50,[14],27 nM
same,IC50,[15],18 nM
